Measured values from the supplement of paper PMC10307832.

Experiments:
Assay in all cases: relative viability (nuclei count vs DMSO), 5 days (fraction); higher = more cells survive
Vemurafenib + Decitabine = compound: CCCS(=O)(=O)Nc1ccc(F)c(C(=O)c2c[nH]c3ncc(-c4ccc(Cl)cc4)cc23)c1F [Vemurafenib] + Nc1ncn([C@H]2C[C@H](O)[C@@H](CO)O2)c(=O)n1 [Decitabine] (partner 2 µM)
Outline: (§1)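 Relative viability divides the nuclei count in treated wells by that in vehicle wells. Lung cancer cell lines were seeded in 1536-well plates, dosed by pin tool the next day, and fixed and stained after 5 days in one step with final 0.05% Triton X-100, 1% formaldehyde and 1 ug/ml Hoechst. Dosing was a single drug or a fixed anchor-drug dose plus five library-drug doses (not always all listed) in √10 steps, and values are medians of duplicate plates imaged at 4×.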

OSI-027 + Trametinib = compound: COc1cccc2cc(-c3nc([C@H]4CC[C@H](C(=O)O)CC4)n4ncnc(N)c34)[nH]c12 [OSI-027] + CC(=O)Nc1cccc(-n2c(=O)n(C3CC3)c(=O)c3c(Nc4ccc(I)cc4F)n(C)c(=O)c(C)c32)c1 [Trametinib] (partner 0.02 µM)
Outline: as §1

OSI-027 + Palbociclib = compound: COc1cccc2cc(-c3nc([C@H]4CC[C@H](C(=O)O)CC4)n4ncnc(N)c34)[nH]c12 [OSI-027] + CC(=O)c1c(C)c2cnc(Nc3ccc(N4CCNCC4)cn3)nc2n(C2CCCC2)c1=O [Palbociclib] (partner 0.5 µM)
Outline: as §1

Alpelisib + Palbociclib = compound: Cc1nc(NC(=O)N2CCC[C@H]2C(N)=O)sc1-c1ccnc(C(C)(C)C(F)(F)F)c1 [Alpelisib] + CC(=O)c1c(C)c2cnc(Nc3ccc(N4CCNCC4)cn3)nc2n(C2CCCC2)c1=O [Palbociclib] (partner 0.5 µM)
Outline: as §1

LU99A
relative viability (Vemurafenib + Decitabine; first compound 0.03162 µM): 0.843 | relative viability (Vemurafenib + Decitabine; first compound 0.1 µM): 0.907 | relative viability (Vemurafenib + Decitabine; first compound 1 µM): 0.719 | relative viability (OSI-027 + Trametinib; first compound 0.01 µM): 0.581 | relative viability (OSI-027 + Trametinib; first compound 0.03162 µM): 0.508 | relative viability (OSI-027 + Trametinib; first compound 0.1 µM): 0.424 | relative viability (OSI-027 + Trametinib; first compound 0.3162 µM): 0.342 | relative viability (OSI-027 + Trametinib; first compound 1 µM): 0.209 | relative viability (OSI-027 + Palbociclib; first compound 0.01 µM): 0.382 | relative viability (OSI-027 + Palbociclib; first compound 0.03162 µM): 0.379 | relative viability (OSI-027 + Palbociclib; first compound 0.1 µM): 0.304 | relative viability (OSI-027 + Palbociclib; first compound 0.3162 µM): 0.217 | relative viability (OSI-027 + Palbociclib; first compound 1 µM): 0.237 | relative viability (Alpelisib + Palbociclib; first compound 0.04 µM): 0.374 | relative viability (Alpelisib + Palbociclib; first compound 0.1265 µM): 0.379 | relative viability (Alpelisib + Palbociclib; first compound 0.4 µM): 0.363 | relative viability (Alpelisib + Palbociclib; first compound 1.265 µM): 0.259 | relative viability (Alpelisib + Palbociclib; first compound 4 µM): 0.22

LXF-289
relative viability (Vemurafenib + Decitabine; first compound 0.03162 µM): 0.329 | relative viability (Vemurafenib + Decitabine; first compound 0.1 µM): 0.303 | relative viability (Vemurafenib + Decitabine; first compound 0.3162 µM): 0.377 | relative viability (Vemurafenib + Decitabine; first compound 1 µM): 0.35 | relative viability (OSI-027 + Trametinib; first compound 0.01 µM): 0.681 | relative viability (OSI-027 + Trametinib; first compound 0.03162 µM): 0.707 | relative viability (OSI-027 + Trametinib; first compound 0.1 µM): 0.752 | relative viability (OSI-027 + Trametinib; first compound 0.3162 µM): 0.612 | relative viability (OSI-027 + Trametinib; first compound 1 µM): 0.357 | relative viability (OSI-027 + Palbociclib; first compound 0.01 µM): 0.605 | relative viability (OSI-027 + Palbociclib; first compound 0.03162 µM): 0.677 | relative viability (OSI-027 + Palbociclib; first compound 0.1 µM): 0.66 | relative viability (OSI-027 + Palbociclib; first compound 0.3162 µM): 0.599 | relative viability (OSI-027 + Palbociclib; first compound 1 µM): 0.345 | relative viability (Alpelisib + Palbociclib; first compound 0.04 µM): 0.55 | relative viability (Alpelisib + Palbociclib; first compound 0.1265 µM): 0.562 | relative viability (Alpelisib + Palbociclib; first compound 0.4 µM): 0.653 | relative viability (Alpelisib + Palbociclib; first compound 1.265 µM): 0.534 | relative viability (Alpelisib + Palbociclib; first compound 4 µM): 0.604

NCI-H23
relative viability (Vemurafenib + Decitabine; first compound 0.03162 µM): 0.287 | relative viability (Vemurafenib + Decitabine; first compound 0.1 µM): 0.272 | relative viability (Vemurafenib + Decitabine; first compound 0.3162 µM): 0.353 | relative viability (Vemurafenib + Decitabine; first compound 1 µM): 0.322 | relative viability (OSI-027 + Trametinib; first compound 0.01 µM): 0.313 | relative viability (OSI-027 + Trametinib; first compound 0.03162 µM): 0.42 | relative viability (OSI-027 + Trametinib; first compound 0.1 µM): 0.349 | relative viability (OSI-027 + Trametinib; first compound 0.3162 µM): 0.26 | relative viability (OSI-027 + Trametinib; first compound 1 µM): 0.28 | relative viability (OSI-027 + Palbociclib; first compound 0.01 µM): 0.439 | relative viability (OSI-027 + Palbociclib; first compound 0.03162 µM): 0.552 | relative viability (OSI-027 + Palbociclib; first compound 0.1 µM): 0.414 | relative viability (OSI-027 + Palbociclib; first compound 0.3162 µM): 0.25 | relative viability (OSI-027 + Palbociclib; first compound 1 µM): 0.237 | relative viability (Alpelisib + Palbociclib; first compound 0.04 µM): 0.59 | relative viability (Alpelisib + Palbociclib; first compound 0.1265 µM): 0.434 | relative viability (Alpelisib + Palbociclib; first compound 0.4 µM): 0.461 | relative viability (Alpelisib + Palbociclib; first compound 1.265 µM): 0.305 | relative viability (Alpelisib + Palbociclib; first compound 4 µM): 0.313

NCI-H322M
relative viability (Vemurafenib + Decitabine; first compound 0.03162 µM): 0.721 | relative viability (Vemurafenib + Decitabine; first compound 0.3162 µM): 0.86 | relative viability (Vemurafenib + Decitabine; first compound 1 µM): 0.707 | relative viability (OSI-027 + Trametinib; first compound 0.01 µM): 0.509 | relative viability (OSI-027 + Trametinib; first compound 0.03162 µM): 0.543 | relative viability (OSI-027 + Trametinib; first compound 0.1 µM): 0.496 | relative viability (OSI-027 + Trametinib; first compound 0.3162 µM): 0.482 | relative viability (OSI-027 + Trametinib; first compound 1 µM): 0.455 | relative viability (OSI-027 + Palbociclib; first compound 0.01 µM): 0.489 | relative viability (OSI-027 + Palbociclib; first compound 0.03162 µM): 0.436 | relative viability (OSI-027 + Palbociclib; first compound 0.1 µM): 0.478 | relative viability (OSI-027 + Palbociclib; first compound 0.3162 µM): 0.438 | relative viability (OSI-027 + Palbociclib; first compound 1 µM): 0.483 | relative viability (Alpelisib + Palbociclib; first compound 0.04 µM): 0.47 | relative viability (Alpelisib + Palbociclib; first compound 0.1265 µM): 0.493 | relative viability (Alpelisib + Palbociclib; first compound 0.4 µM): 0.453 | relative viability (Alpelisib + Palbociclib; first compound 1.265 µM): 0.389 | relative viability (Alpelisib + Palbociclib; first compound 4 µM): 0.309

NCI-H358
relative viability (Vemurafenib + Decitabine; first compound 0.03162 µM): 0.211 | relative viability (Vemurafenib + Decitabine; first compound 0.1 µM): 0.228 | relative viability (Vemurafenib + Decitabine; first compound 0.3162 µM): 0.226 | relative viability (Vemurafenib + Decitabine; first compound 1 µM): 0.229 | relative viability (OSI-027 + Trametinib; first compound 0.01 µM): 0.114 | relative viability (OSI-027 + Trametinib; first compound 0.03162 µM): 0.129 | relative viability (OSI-027 + Trametinib; first compound 0.1 µM): 0.123 | relative viability (OSI-027 + Trametinib; first compound 0.3162 µM): 0.112 | relative viability (OSI-027 + Trametinib; first compound 1 µM): 0.117 | relative viability (OSI-027 + Palbociclib; first compound 0.01 µM): 0.134 | relative viability (OSI-027 + Palbociclib; first compound 0.03162 µM): 0.139 | relative viability (OSI-027 + Palbociclib; first compound 0.1 µM): 0.125 | relative viability (OSI-027 + Palbociclib; first compound 0.3162 µM): 0.103 | relative viability (OSI-027 + Palbociclib; first compound 1 µM): 0.127 | relative viability (Alpelisib + Palbociclib; first compound 0.04 µM): 0.118 | relative viability (Alpelisib + Palbociclib; first compound 0.1265 µM): 0.104 | relative viability (Alpelisib + Palbociclib; first compound 0.4 µM): 0.139 | relative viability (Alpelisib + Palbociclib; first compound 1.265 µM): 0.103 | relative viability (Alpelisib + Palbociclib; first compound 4 µM): 0.103

NCI-H441
relative viability (Vemurafenib + Decitabine; first compound 0.03162 µM): 0.252 | relative viability (Vemurafenib + Decitabine; first compound 0.1 µM): 0.262 | relative viability (Vemurafenib + Decitabine; first compound 0.3162 µM): 0.28 | relative viability (Vemurafenib + Decitabine; first compound 1 µM): 0.231 | relative viability (OSI-027 + Trametinib; first compound 0.01 µM): 0.346 | relative viability (OSI-027 + Trametinib; first compound 0.03162 µM): 0.434 | relative viability (OSI-027 + Trametinib; first compound 0.1 µM): 0.486 | relative viability (OSI-027 + Trametinib; first compound 0.3162 µM): 0.362 | relative viability (OSI-027 + Trametinib; first compound 1 µM): 0.253 | relative viability (OSI-027 + Palbociclib; first compound 0.01 µM): 0.165 | relative viability (OSI-027 + Palbociclib; first compound 0.03162 µM): 0.205 | relative viability (OSI-027 + Palbociclib; first compound 0.1 µM): 0.178 | relative viability (OSI-027 + Palbociclib; first compound 0.3162 µM): 0.146 | relative viability (OSI-027 + Palbociclib; first compound 1 µM): 0.166 | relative viability (Alpelisib + Palbociclib; first compound 0.04 µM): 0.225 | relative viability (Alpelisib + Palbociclib; first compound 0.1265 µM): 0.166 | relative viability (Alpelisib + Palbociclib; first compound 0.4 µM): 0.182 | relative viability (Alpelisib + Palbociclib; first compound 1.265 µM): 0.14 | relative viability (Alpelisib + Palbociclib; first compound 4 µM): 0.111

NCI-H460
relative viability (Vemurafenib + Decitabine; first compound 0.03162 µM): 0.435 | relative viability (Vemurafenib + Decitabine; first compound 0.1 µM): 0.511 | relative viability (Vemurafenib + Decitabine; first compound 0.3162 µM): 0.485 | relative viability (Vemurafenib + Decitabine; first compound 1 µM): 0.501 | relative viability (OSI-027 + Trametinib; first compound 0.01 µM): 0.152 | relative viability (OSI-027 + Trametinib; first compound 0.03162 µM): 0.13 | relative viability (OSI-027 + Trametinib; first compound 0.1 µM): 0.145 | relative viability (OSI-027 + Trametinib; first compound 0.3162 µM): 0.129 | relative viability (OSI-027 + Trametinib; first compound 1 µM): 0.12 | relative viability (OSI-027 + Palbociclib; first compound 0.01 µM): 0.18 | relative viability (OSI-027 + Palbociclib; first compound 0.03162 µM): 0.186 | relative viability (OSI-027 + Palbociclib; first compound 0.1 µM): 0.186 | relative viability (OSI-027 + Palbociclib; first compound 0.3162 µM): 0.158 | relative viability (OSI-027 + Palbociclib; first compound 1 µM): 0.092 | relative viability (Alpelisib + Palbociclib; first compound 0.04 µM): 0.338 | relative viability (Alpelisib + Palbociclib; first compound 0.1265 µM): 0.155 | relative viability (Alpelisib + Palbociclib; first compound 0.4 µM): 0.166 | relative viability (Alpelisib + Palbociclib; first compound 1.265 µM): 0.0802 | relative viability (Alpelisib + Palbociclib; first compound 4 µM): 0.114

NCI-H520
relative viability (Vemurafenib + Decitabine; first compound 0.03162 µM): 0.463 | relative viability (Vemurafenib + Decitabine; first compound 0.1 µM): 0.482 | relative viability (Vemurafenib + Decitabine; first compound 0.3162 µM): 0.479 | relative viability (Vemurafenib + Decitabine; first compound 1 µM): 0.519 | relative viability (OSI-027 + Trametinib; first compound 0.01 µM): 0.644 | relative viability (OSI-027 + Trametinib; first compound 0.03162 µM): 0.606 | relative viability (OSI-027 + Trametinib; first compound 0.1 µM): 0.563 | relative viability (OSI-027 + Trametinib; first compound 0.3162 µM): 0.379 | relative viability (OSI-027 + Trametinib; first compound 1 µM): 0.188 | relative viability (OSI-027 + Palbociclib; first compound 0.01 µM): 0.204 | relative viability (OSI-027 + Palbociclib; first compound 0.03162 µM): 0.18 | relative viability (OSI-027 + Palbociclib; first compound 0.1 µM): 0.22 | relative viability (OSI-027 + Palbociclib; first compound 0.3162 µM): 0.163 | relative viability (OSI-027 + Palbociclib; first compound 1 µM): 0.145 | relative viability (Alpelisib + Palbociclib; first compound 0.04 µM): 0.241 | relative viability (Alpelisib + Palbociclib; first compound 0.1265 µM): 0.235 | relative viability (Alpelisib + Palbociclib; first compound 0.4 µM): 0.195 | relative viability (Alpelisib + Palbociclib; first compound 1.265 µM): 0.19 | relative viability (Alpelisib + Palbociclib; first compound 4 µM): 0.189
